# Target: KDR (Homo sapiens, UniProt P35968)
# Test: KDR cellular assay (KDR receptor phosphorylation ELISA)
# Assay type: cell-based
# Parameters: expressed in transfected cells; host or cells: 3T3 (embryonic mouse) cells
# Conditions: KDR transfected 3T3 (embryonic mouse) cells, VEGF stimulated; read-out: IC50 inhibition of KDR phosphorylation
# How it was run: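 KDR-transfected mouse 3T3 cells treated 20 min at 37° C with half-log compound dilutions, then stimulated 10 min with VEGF (100 ng/ml solution). Lysates captured on anti-KDR plates; phosphorylation by biotin antibody/streptavidin-HRP ELISA at 450 nm. IC50 by non-linear regression.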
# KDR, sequence (P35968 20-1356): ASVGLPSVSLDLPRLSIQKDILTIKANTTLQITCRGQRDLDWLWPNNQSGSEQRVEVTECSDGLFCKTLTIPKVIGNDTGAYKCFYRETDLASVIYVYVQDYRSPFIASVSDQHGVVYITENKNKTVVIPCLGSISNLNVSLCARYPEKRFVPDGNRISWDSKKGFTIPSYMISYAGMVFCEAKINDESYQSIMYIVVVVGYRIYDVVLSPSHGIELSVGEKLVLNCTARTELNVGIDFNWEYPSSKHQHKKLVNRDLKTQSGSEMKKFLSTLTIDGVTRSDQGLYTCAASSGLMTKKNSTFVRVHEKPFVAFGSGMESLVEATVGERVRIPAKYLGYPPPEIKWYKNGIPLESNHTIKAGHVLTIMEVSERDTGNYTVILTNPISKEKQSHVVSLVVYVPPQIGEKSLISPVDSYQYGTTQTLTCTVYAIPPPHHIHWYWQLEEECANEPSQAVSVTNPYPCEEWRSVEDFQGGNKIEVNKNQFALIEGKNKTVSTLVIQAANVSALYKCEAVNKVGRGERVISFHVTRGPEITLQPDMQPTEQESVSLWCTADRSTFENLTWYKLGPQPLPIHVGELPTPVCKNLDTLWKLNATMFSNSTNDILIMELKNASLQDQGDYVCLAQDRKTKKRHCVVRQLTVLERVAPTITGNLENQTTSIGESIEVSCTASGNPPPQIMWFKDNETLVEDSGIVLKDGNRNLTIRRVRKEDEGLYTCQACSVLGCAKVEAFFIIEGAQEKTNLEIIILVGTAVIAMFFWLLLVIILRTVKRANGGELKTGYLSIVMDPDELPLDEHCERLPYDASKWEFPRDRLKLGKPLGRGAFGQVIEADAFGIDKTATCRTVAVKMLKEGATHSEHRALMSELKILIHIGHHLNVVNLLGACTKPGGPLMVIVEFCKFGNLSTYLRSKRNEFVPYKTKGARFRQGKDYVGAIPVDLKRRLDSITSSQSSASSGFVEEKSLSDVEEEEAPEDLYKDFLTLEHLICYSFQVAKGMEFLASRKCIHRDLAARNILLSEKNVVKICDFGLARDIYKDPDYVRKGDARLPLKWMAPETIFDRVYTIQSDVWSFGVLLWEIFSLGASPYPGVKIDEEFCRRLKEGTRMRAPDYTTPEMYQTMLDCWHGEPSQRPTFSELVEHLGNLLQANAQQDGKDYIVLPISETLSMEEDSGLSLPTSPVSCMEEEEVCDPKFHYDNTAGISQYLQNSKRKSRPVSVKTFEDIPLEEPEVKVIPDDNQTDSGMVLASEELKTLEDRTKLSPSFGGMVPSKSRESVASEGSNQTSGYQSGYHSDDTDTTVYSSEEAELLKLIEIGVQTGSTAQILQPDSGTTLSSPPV
row,Structure (SMILES),IC50 [nM]
1,"NC(=O)[C@@H]1[C@H](Nc2nc(Nc3cnn(Cc4ccccc4Cl)c3)ncc2Cl)[C@H]2C=C[C@@H]1C2 [Example 161, (1S,2S,3R,4R)-3-[(5-chloro-2-{[1-(2-chlorobenzyl)-1H-pyrazol-4-yl]amino}pyrimidin-4-yl)amino]bicyclo[2.2.1]hept-5-ene-2-carboxamide]",< 100
2,"NC(=O)[C@@H]1[C@H](Nc2nc(Nc3cnn(Cc4ccc(Cl)cc4)c3)ncc2Cl)[C@H]2C=C[C@@H]1C2 [Example 162, (1S,2S,3R,4R)-3-[(5-chloro-2-{[1-(4-chlorobenzyl)-1H-pyrazol-4-yl]amino}pyrimidin-4-yl)amino]bicyclo[2.2.1]hept-5-ene-2-carboxamide]",< 100
3,"Cn1cc(Nc2ncc(Cl)c(N[C@H]3[C@@H](C(N)=O)C[C@H]4C[C@@H]3C4(C)C)n2)cn1 [Example 165, (1R,2R,3S,5R)-2-({5-chloro-2-[(1-methyl-1H-pyrazol-4-yl)amino]pyrimidin-4-yl}amino)-6,6-dimethylbicyclo[3.1.1]heptane-3-carboxamide]",100 to 1000
4,"Cn1cc(Nc2ncc(C(F)(F)F)c(N[C@H]3[C@@H](C(N)=O)C[C@H]4C[C@@H]3C4(C)C)n2)cn1 [Example 167, (1R,2R,3S,5R)-6,6-dimethyl-2-({2-[(1-methyl-1H-pyrazol-4-yl)amino]-5-(trifluoromethyl)pyrimidin-4-yl}amino)bicyclo[3.1.1]heptane-3-carboxamide]",100 to 1000
5,"CCn1cc(Nc2ncc(C(F)(F)F)c(N[C@H]3[C@@H](C(N)=O)C[C@H]4C[C@@H]3C4(C)C)n2)cn1 [Example 168, (1R,2R,3S,5R)-2-({2-[(1-ethyl-1H-pyrazol-4-yl)amino]-5-(trifluoromethyl)pyrimidin-4-yl}amino)-6,6-dimethylbicyclo[3.1.1]heptane-3-carboxamide]",100 to 1000
6,"Cc1c(Nc2ncc(Cl)c(N[C@H]3[C@@H](C(N)=O)[C@@H]4C=C[C@H]3C4)n2)cnn1C [Example 169, (1S,2S,3R,4R)-3-({5-chloro-2-[(1,5-dimethyl-1H-pyrazol-4-yl)amino]pyrimidin-4-yl}amino)bicyclo[2.2.1]hept-5-ene-2-carboxamide]",< 100
7,"Cc1c(Nc2ncc(Br)c(N[C@H]3[C@@H](C(N)=O)[C@@H]4C=C[C@H]3C4)n2)cnn1C [Example 170, (1S,2S,3R,4R)-3-({5-bromo-2-[(1,5-dimethyl-1H-pyrazol-4-yl)amino]pyrimidin-4-yl}amino)bicyclo[2.2.1]hept-5-ene-2-carboxamide]",< 100
8,"NC(=O)[C@@H]1[C@H](Nc2nc(Nc3cnn(Cc4ccccc4Cl)c3)ncc2Br)[C@H]2C=C[C@@H]1C2 [Example 171, (1S,2S,3R,4R)-3-[(5-bromo-2-{[1-(2-chlorobenzyl)-1H-pyrazol-4-yl]amino}pyrimidin-4-yl)amino]bicyclo[2.2.1]hept-5-ene-2-carboxamide]",< 100
9,"NC(=O)[C@@H]1[C@H](Nc2nc(Nc3cnn(Cc4ccc(Cl)cc4)c3)ncc2Br)[C@H]2C=C[C@@H]1C2 [Example 172, (1S,2S,3R,4R)-3-[(5-bromo-2-{[1-(4-chlorobenzyl)-1H-pyrazol-4-yl]amino}pyrimidin-4-yl)amino]bicyclo[2.2.1]hept-5-ene-2-carboxamide]",< 100
10,"NC(=O)[C@@H]1[C@H](Nc2nc(Nc3cnn(-c4ccccc4)c3)ncc2Br)[C@H]2C=C[C@@H]1C2 [Example 173, (1S,2S,3R,4R)-3-({5-bromo-2-[(1-phenyl-1H-pyrazol-4-yl)amino]pyrimidin-4-yl}amino)bicyclo[2.2.1]hept-5-ene-2-carboxamide]",< 100
11,"NC(=O)[C@@H]1[C@H](Nc2nc(Nc3cnn(-c4ccccc4)c3)ncc2Cl)[C@H]2C=C[C@@H]1C2 [Example 174, (1S,2S,3R,4R)-3-({5-chloro-2-[(1-phenyl-1H-pyrazol-4-yl)amino]pyrimidin-4-yl}amino)bicyclo[2.2.1]hept-5-ene-2-carboxamide]",< 100

# — patent publication US8426408B2, “Pyrimidine inhibitors of kinases” (AbbVie Inc., priority 2009, dated 2013)
